Results from patent US20150093333A1, “COMPOSITIONS, METHODS AND USES FOR PEPTIDES IN DIAGNOSIS, PROGRESSION AND TREATMENT OF CANCERS” (THE REGENTS OF THE UNIVERSITY OF COLORADO, body corporate, priority 2003, published 2015).

Columns and labels:
Format in all cases: binding
[1] = system: synthetic vesicles of sizes 100 nm and 400 nm; assay: Cosedimentation assay of MARCKS-ED with synthetic vesicles
From the text: (§1) In another exemplary method, lipid vesicles were employed to the curvature-sensing behavior of the MARCKS derived peptides with various sizes and lipid components. The membrane curvature is defined as the reciprocal of the diameter of a particular particle, e.g., smaller-sized vesicles present highly curved membrane bilayers. A series of lipid models were made to represent various lipid components that closely resemble the lipid composition of biological membranes. […] Dynamic light scattering (DLS) and negative-stain transmission electron microscopy (TEM) were performed to confirm the different vesicle sizes following the pressure-controlled extrusion process through different membrane diameter pores. Commercial polystyrene beads were used as the calibration standard for the vesicle size validation experiments. Furthermore, a time-course experiment was carried out to confirm the stability of the vesicles up to 16 hours. Three different membrane diameters were extruded for the following biophysical characterizations: 30 nm, 100 nm, 400 nm, reflecting different membrane curvatures.
In another exemplary method, a cosedimentation assay was performed to test the size differentiation behavior of MARCKS-ED. Two vesicle pore sizes, 100 and 400 nm, were used in this experiment because vesicles smaller than 100 nm were difficult to pellet even at high centrifugation speed. MARCKS-ED (10 μM) was incubated with 600 μM synthetic vesicles of sizes 100 nm and 400 nm. The positive control was the intact C2A-C2B cytoplasmic domains (C2AB) of rat Synaptotamin-1 (a.a. 96-421). C2AB (1.5 μM) was treated with CaCl2 (1 mM) and incubated with 300 μM synthetic vesicles of sizes 100 nm and 400 nm. C2AB treated with vesicles was incubated at room temperature for 30 minutes, followed by centrifugation of 65,000 rpm for 45 minutes at 20° C. MARCKS-ED treated with vesicles was incubated at room temperature for 2 hours, followed by 75,000 rpm for 45 minutes at 20° C. […]

[2] = molecular target: lipid vesicles 60% POPC:15% cholesterol:15% POPE:10% POPS; assay: Fluorescence anisotropy titration of NBD-labeled MARCKS peptides with lipid vesicles
Procedure: In another example, because fluorescence enhancement assays could not distinguish the contributions between different degrees of membrane penetration and binding affinity, fluorescence anisotropy assay was performed to specifically measure the binding affinity of the MARCKS derived peptides. The NBD-labeled peptides (1 μM) were titrated by synthetic liposomes of various sizes (30, 100, and 400 nm). Fluorescence anisotropy was recorded using a Fluorolog-3 fluorometer. The mixture was allowed to equilibrate for 2 minutes prior to the next titration. The excitation wavelength was set to λex=480 nm whereas the emission filter was set to λem=545 nm. The voltage was set to 250 V throughout the experiment. Blank PBS (pH=7.40) was titrated to NBD-labeled peptides as a negative control, where negligible anisotropy change was observed. The following equation was used to determine the dissociation constants as previously reported: Fb=Kp [L]/(1+KP[L]), where Fb expresses the fraction of peptide bound to lipids, Kp expresses the molar partition coefficient and [L] expresses the lipid concentration.
Lipid vesicles were titrated to NBD-labeled MARCKS-ED, MARCKSmut1, or MARCKSmut2 peptides. Since the peptide partitions between the hydrophobic lipid bilayer and the aqueous solvent, the molar partition coefficient is often reported. By definition, the apparent dissociation constant (Kd), described as the lipid concentration where 50% of the peptide is bound, is the reciprocal of the molar partition coefficient (Kp). Fluorescence anisotropy assay results indicated efficient curvature sensing by MARCKS-ED. FIG. 4C represents an exemplary fluorescence anisotropy titration of MARCKS-ED with various lipid vesicles. FIG. 4D provides data of fluoresence anisotropy titration of various MARCKS derived peptides. Lipid vesicles used in the experiments represented by FIGS. 4C-4D contained 60% POPC:15% cholesterol: 15% POPE: 10% POPS. […] As a comparison, C2AB illustrated a 1.9 fold increase in binding to smaller vesicles (105 nm) relative to the larger ones (252 nm). […] In addition, electrostatic interactions of MARCKSmut2 were also compromised. […] Such defects would permit the Phe residue to insert and stabilize the highly curved membranes.

synthetic lipid vesicles = assay: Fluorescence enhancement assay of NBD-labeled MARCKS peptides with synthetic vesicles
From the text: as §1
Next, a fluorescence enhancement assay was conducted to further quantify the curvature- and PS-sensing behavior of MARCKS-ED. Appropriate controls were performed to confirm that the fluorophore alone had no effect on the observed fluorescence enhancement (data not shown). FIG. 4 represents histogram data of fluorescence enhancement assay with and fluorescence anisotropy titration of the NBD labeled MARCKS derived peptides. Upon binding to lipid vesicles, the fluorescence intensity of NBD-MARCKS-ED increased due to vesicle binding and changes in the hydrophobic environment surrounding the fluorophore, concurring with a slight blue shift of the maximum emission wavelength. The emission spectra of all NBD-labeled peptides were recorded using a Fluorolog-3 fluorometer with λex=480 nm. The peptides and protein were tested at a concentration of 500 nM in PBS (pH 7.40) treated with 500 μM synthetic vesicles of different vesicles sizes. […] The positive control C2AB (200 nM) from the rat Synaptotagmin-1 (Syn-1) protein (G374, residues 96-421) was treated with CaCl2 (2.5 mM) and observed with λex of 275 nm and emission range of 300-450 nm. The untreated peptide and Ca^2+-C2AB samples were corrected by the PBS (pH=7.40) blank solution for the peptides and PBS with Ca^2+ for the Ca^2+-C2AB sample. All samples were prepared and incubated overnight in 4° C.
FIG. 4A illustrates a histogram plot of fluorescence intensity of MARCKS-ED treated with lipid vesicles of various sizes. […] Last, the fluorescence intensity differences were less significant with vesicles containing no PS. […]

- Kd ([2]; 30 nm pore size lipid vesicles containing 10% PS): 24 ± 3 µM
- Kd ([2]; 100 nm pore size lipid vesicles containing 10% PS): 42 ± 13 µM
- Kd ([2]; 400 nm pore size lipid vesicles containing 10% PS): 86 ± 20 µM
- reversal of binding by CaM (synthetic lipid vesicles; addition of CaM): could be partially reversed
Sequence: KKKKKRFSFKKSFKLSGFSFKKNKK [MARCKS-ED]
- pull-down by lipid vesicles without PS [1]: less MARCKS-ED was pulled down
- pull-down by 100 nm vs 400 nm PS-containing vesicles ([1]; gel electrophoresis of supernatant and pellet): binds more tightly to highly curved vesicles containing PS
- fluorescence intensity increase, 30 nm vs 400 nm vesicles (synthetic lipid vesicles; peptide 500 nM, 500 μM vesicles containing PS): approximately 1.5 fold
